Test results published in patent publication US11726101B2, “Adrenomedullin assays and methods for determining mature adrenomedullin” (SPHINGOTEC GMBH, priority 2011, dated 2023).

Tests used:
[1] = Stability of human Adrenomedullin in human Citrate plasma at 24° C., quantified by hADM immunoassay (MR-ADM/CT-ADM); assay type: in vitro ADME; conditions: for Average ADM recovery (N = 5) / Loss of immune reactivity %/h: human Citrate plasma; for Average ADM recovery (N = 5): 10 ng ADM/ml; for Average loss of immune reactivity: average over time points, human plasma, MR-ADM/CT-ADM sandwich assay
Procedure: At selected time points, aliquots were frozen at −20° C.

[2] = using other assay methods (Hinson 2000); cited from earlier work

Average ADM recovery (N = 5) ([1]; 0 h): 100
Loss of immune reactivity %/h ([1]; 2 h): 0.4 %/h
Average ADM recovery (N = 5) ([1]; 2 h): 99.2
Loss of immune reactivity %/h ([1]; 4 h): 0.8 %/h
Average ADM recovery (N = 5) ([1]; 4 h): 96.4
Loss of immune reactivity %/h ([1]; 8 h): 1.5 %/h
Average ADM recovery (N = 5) ([1]; 8 h): 88.2
Average loss of immune reactivity [1]: Average: 0.9%/h
Average loss of immune reactivity ([1]; listed as ADM): 0.9 %/h
Compound: CC[C@H](C)[C@H](NC(=O)[C@H](CCC(N)=O)NC(=O)[C@H](Cc1c[nH]cn1)NC(=O)[C@H](C)NC(=O)[C@H](CC(C)C)NC(=O)[C@H](CCCCN)NC(=O)[C@H](CCC(N)=O)NC(=O)[C@@H](NC(=O)[C@@H](NC(=O)[C@@H]1CSSC[C@H](NC(=O)CNC(=O)[C@H](Cc2ccccc2)NC(=O)[C@H](CO)NC(=O)[C@H](CCCNC(=N)N)NC(=O)[C@H](CC(C)C)NC(=O)CNC(=O)[C@H](CCC(N)=O)NC(=O)[C@H](Cc2ccccc2)NC(=O)[C@H](CC(N)=O)NC(=O)[C@H](CC(N)=O)NC(=O)[C@H](CCSC)NC(=O)[C@H](CO)NC(=O)[C@H](CCC(N)=O)NC(=O)[C@H](CCCNC(=N)N)NC(=O)[C@@H](N)Cc2ccc(O)cc2)C(=O)N[C@@H](CCCNC(=N)N)C(=O)N[C@@H](Cc2ccccc2)C(=O)NCC(=O)N[C@@H]([C@@H](C)O)C(=O)N1)[C@@H](C)O)C(C)C)C(=O)N[C@@H](Cc1ccc(O)cc1)C(=O)N[C@@H](CCC(N)=O)C(=O)N[C@@H](Cc1ccccc1)C(=O)N[C@H](C(=O)N[C@@H](CC(=O)O)C(=O)N[C@@H](CCCCN)C(=O)N[C@@H](CC(=O)O)C(=O)N[C@@H](CCCCN)C(=O)N[C@@H](CC(=O)O)C(=O)N[C@@H](CC(N)=O)C(=O)N[C@H](C(=O)N[C@@H](C)C(=O)N1CCC[C@H]1C(=O)N[C@@H](CCCNC(=N)N)C(=O)N[C@@H](CO)C(=O)N[C@@H](CCCCN)C(=O)N[C@H](C(=O)N[C@@H](CO)C(=O)N1CCC[C@H]1C(=O)N[C@@H](CCC(N)=O)C(=O)NCC(=O)N[C@@H](Cc1ccc(O)cc1)C(N)=O)[C@@H](C)CC)C(C)C)[C@@H](C)O [hADM]
plasma half life [2]: 22 min
